# Results from US12029739B2, “SHP2 inhibitor and use thereof” (KANAPH THERAPEUTICS INC., priority 2021, dated 2024).
# Assays:
# SHP2 (full length) = target: T1, SHP2 (full length) (Homo sapiens, UniProt Q06124); experiment: Phosphatase assay (PTPase assay) with DiFMUP substrate; assay type: biochemical; details: SHP2 activated with SHP2 activating peptide; DiFMUP 80 μM, 2 hours; fluorescence; read-out: IC50 (PTPase aS say)
# T1 construct: SHP2 (full length, diluted to 100 pM final concentration in reaction buffer, BPS bioscience, US); purchased BPS bioscience, US
# T1 sequence (Q06124 1-593): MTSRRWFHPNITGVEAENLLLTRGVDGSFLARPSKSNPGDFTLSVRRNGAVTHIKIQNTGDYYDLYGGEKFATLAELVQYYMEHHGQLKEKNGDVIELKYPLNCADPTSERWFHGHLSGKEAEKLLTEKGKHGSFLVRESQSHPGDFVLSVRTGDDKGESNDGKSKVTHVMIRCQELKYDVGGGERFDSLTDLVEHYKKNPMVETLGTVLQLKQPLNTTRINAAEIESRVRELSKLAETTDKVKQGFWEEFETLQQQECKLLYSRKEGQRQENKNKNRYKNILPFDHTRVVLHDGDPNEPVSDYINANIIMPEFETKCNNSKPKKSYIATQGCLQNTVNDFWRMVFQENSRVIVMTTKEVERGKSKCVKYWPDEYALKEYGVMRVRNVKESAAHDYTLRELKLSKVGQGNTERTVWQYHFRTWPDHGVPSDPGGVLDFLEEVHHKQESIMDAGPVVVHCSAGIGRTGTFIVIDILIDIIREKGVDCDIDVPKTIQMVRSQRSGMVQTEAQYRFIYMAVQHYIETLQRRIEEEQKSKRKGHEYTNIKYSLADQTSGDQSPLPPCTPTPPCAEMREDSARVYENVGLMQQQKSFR
# [1] = system: phospho-ERK in MIA PaCa2 or H358 cells; experiment: Phospho-ERK assay (AlphaLisa); assay type: cell-based; details: 1.5 h, MIA PaCa2 or H358 cells, compound incubated 1.5 hours; read-out: IC50 (p-ERK)
Compound,IC50 (SHP2 (full length)),IC50 [1]
"CC(C)(O)Cn1cnc2ccc(Sc3ncc(N4CCC5(CC4)Cc4ncsc4[C@H]5N)nc3N)c(Cl)c2c1=O [Example 166, (S)-6-((3-amino-5-(6-amino-4,6-dihydrospiro[cyclopenta[d]thiazole-5,4′-piperidin]-1′-yl)pyrazin-2-yl)thio)-5-chloro-3-(2-hydroxy-2-methylpropyl)quinazolin-4(3H)-one]",< 3 nM,< 45 nM
Cn1c(N2CCN(CCN)CC2)nc(N)c(-c2cccc(Cl)c2Cl)c1=O [Example 195],> 100 nM,> 1500 nM
"Cn1c(N2CCN(CC(N)c3ccccc3)CC2)nc(N)c(Sc2cccc(Cl)c2Cl)c1=O (stereo not shown) [Example 190, 6-amino-2-(4-(2-amino-2-phenylethyl)piperazin-1-yl)-5-((2,3-dichlorophenyl)thio)-3-methylpyrimidin-4(3H)-one]",> 100 nM,> 1500 nM
"C[C@@H]1OCC2(CCN(c3cnc(Sc4ccc5ncn(CCCO)c(=O)c5c4Cl)cn3)CC2)[C@@H]1N [Example 63, 6-((5-((3S,4S)-4-amino-3-methyl-2-oxa-8-azaspiro[4.5]decan-8-yl)pyrazin-2-yl)thio)-5-chloro-3-(3-hydroxypropyl)quinazolin-4(3H)-one]",< 3 nM,< 45 nM
"CC(C)(O)Cn1cnc2ccc(Sc3cnc(N4CCC5(CC4)Cc4ncsc4[C@H]5N)cn3)c(Cl)c2c1=O [Example 147, 6-[5-[(6S)-6-aminospiro[4,6-dihydrocyclopenta[d]thiazole-5,4′piperidin]1′-yl]pyrazin-2-yl]sulfanyl-5-chloro-3-(2-hydroxy-2-methyl-propyl)quinazolin-4-one]",< 3 nM,< 45 nM
